Measured values reported in PMC5039532, “Design and Synthesis of Analogues of Marine Natural Product Galaxamide, an N-methylated Cyclic Pentapeptide, as Potential Anti-Tumor Agent in Vitro” (Marine Drugs, 2016).
Converted amounts (≈) assume the structure as drawn. Where two headings read alike, the source gives them in different places.

Columns and labels:
[1] = amide bond, 15-membered ring, PyBOP/DIEA, DCM, 0.7 mM, 25.0 °C
[2] = tested on: Lung cancer cell line A549; format: cell-based, human; conditions: 48 h
Experimental: (§1) Lung cancer A549, drug-resistant lung cancer A549-DPP, human hepatocellular carcinoma HepG2 and hepatocellular carcinoma SMMC-7721 cells obtained from the China cell bank of the Institute of Biochemistry and were cultured in DMEM culture medium (DMEM, Corning, NY, USA) containing 10% fetal bovine serum (FBS, Hyclone, Logan, UT, USA), 1% penicillin-streptomycin and an antifungal agent in a 5% CO2 humidified atmosphere at 37 °C. The culture medium was replaced once in a day. Trypsin digestion method was adopted for cell propagation. Upon reaching 80%–90% confluence, the cells were rinsed twice with PBS. A certain amount of 0.25% trypsin digestion solution was then added and maintained for 3–5 min at 37 °C. Afterward, DMEM culture medium containing 10% fetal bovine serum was added to terminate the digestion. The cells were then blown well to form single cell suspensions.
(§2) The cell viability was determined by measuring the ability of cells to transform MTT (Genview, Houston, TX, USA) to a purple formazan dye. The cells were seeded in 96-well tissue culture plates at 2.5 × 10^3 cells/well for 24 h. The cells were then incubated with galaxamide and its analogues for 48 h. After incubation, 20 μL/well of MTT solution (5 mg/mL phosphate buffered saline) were added and incubated for 5 h. The medium was aspirated and replaced with 100 μL/well of DMSO to dissolve the formazan salt. The color intensity of the formazan solution, which reflects the cell growth condition, was measured at 570 nm using a microplate spectrophotometer (SpectroAma™ 250, Winooski, VT, USA).

[3] = tested on: drug-resistant lung cancer cell line A549/DPP; format: cell-based, human; conditions: 48 h
Experimental: as §1, §2

[4] = tested on: hepatocellular carcinoma SMMC-7721 cells; format: cell-based, human; conditions: for IC50 Value SMMC-7721: 48 h
Experimental: as §1, §2

[5] = tested on: human hepatocellular carcinoma HepG2; format: cell-based; conditions: 48 h
Experimental: as §1, §2

[6] = ratio of IC50 values, MTT assay

Row | SMILES | IC50 Value A549 [2] | IC50 Value A549-DPP [3] | IC50 Value SMMC-7721 [4] | IC50 Value HepG2 [5] | further results
1 | CC(C)C[C@H]1NC(=O)[C@@H](Cc2ccccc2)NC(=O)[C@H](CC(C)C)N(C)C(=O)[C@@H](CC(C)C)NC(=O)[C@H](CC(C)C)N(C)C1=O [cyclo(D-Phe-D-Leu-N-Me-Leu-D-Leu-N-Me-Leu)] |  |  |  |  | ring closure, yield after HPLC ([1]; from H-dPhe-dLeu-MeLeu-dLeu-MeLeu-OH?): 53.9%
2 | CC(C)C[C@@H]1NC(=O)[C@@H](CC(C)C)N(C)C(=O)[C@H](CC(C)C)NC(=O)[C@@H](Cc2ccccc2)NC(=O)[C@@H](CC(C)C)NC1=O [cyclo(D-Phe-Leu-D-N-Me-Leu-Leu-D-Leu)] |  |  |  |  | ring closure, yield after HPLC ([1]; from H-dPhe-Leu-dMeLeu-Leu-dLeu-OH?): 53.8%
3 | CC(C)C[C@@H]1NC(=O)[C@H](CC(C)C)N(C)C(=O)[C@@H](Cc2ccccc2)NC(=O)[C@@H](CC(C)C)N(C)C(=O)[C@H](CC(C)C)NC1=O [cyclo(D-Phe-N-Me-Leu-Leu-Leu-D-N-Me-Leu)] |  |  |  |  | ring closure, yield after HPLC ([1]; from H-dPhe-MeLeu-Leu-Leu-dMeLeu-OH?): 45.1%
4 | CC(C)C[C@H]1NC(=O)[C@H](Cc2ccccc2)NC(=O)[C@H](CC(C)C)N(C)C(=O)[C@@H](CC(C)C)NC(=O)[C@@H](CC(C)C)NC1=O [Compound 21, cyclo(Phe-D-Leu-D-Leu-D-Leu-N-Me-Leu)] | 6.47 µg/mL (≈ 10.5 µM) | 18.6 µg/mL (≈ 30.3 µM) | 8.21 µg/mL (≈ 13.4 µM) | 15.3 µg/mL (≈ 24.9 µM) | 
5 | CC(C)C[C@@H]1NC(=O)[C@H](CC(C)C)N(C)C(=O)[C@H](CC(C)C)NC(=O)[C@@H](CC(C)C)N(C)C(=O)[C@@H](Cc2ccccc2)NC1=O [Compound 19, cyclo(D-Phe-D-N-Me-Leu-Leu-N-Me-Leu-Leu)] | 5.21 µg/mL (≈ 8.3 µM) | 17.73 µg/mL (≈ 28.2 µM) | 2.7 µg/mL (≈ 4.3 µM) | 4.25 µg/mL (≈ 6.77 µM) | 
6 | CC(C)C[C@@H]1NC(=O)[C@@H](Cc2ccccc2)NC(=O)[C@@H](CC(C)C)NC(=O)[C@@H](CC(C)C)NC(=O)[C@H](CC(C)C)N(C)C1=O [cyclo(D-Phe-Leu-N-Me-Leu-D-Leu-D-Leu)] |  |  |  |  | ring closure, yield after HPLC ([1]; from H-dPhe-Leu-MeLeu-dLeu-dLeu-OH?): 61.5%
7 | CC(C)C[C@@H]1NC(=O)[C@@H](Cc2ccccc2)NC(=O)[C@H](CC(C)C)N(C)C(=O)[C@H](CC(C)C)NC(=O)[C@@H](CC(C)C)NC1=O [Compound 23, cyclo(D-Phe-Leu-D-Leu-Leu-N-Me-Leu)] | 5.85 µg/mL (≈ 9.53 µM) | 9.13 µg/mL (≈ 14.9 µM) | 4.32 µg/mL (≈ 7.04 µM) | 26.62 µg/mL (≈ 43.4 µM) | 
8 | CC(C)C[C@@H]1NC(=O)[C@H](Cc2ccccc2)NC(=O)[C@H](CC(C)C)N(C)C(=O)[C@@H](CC(C)C)NC(=O)[C@H](CC(C)C)NC1=O [Compound 20, cyclo(Phe-Leu-Leu-D-Leu-N-Me-Leu)] | 7.41 µg/mL (≈ 12.1 µM) | 16.15 µg/mL (≈ 26.3 µM) | 3.35 µg/mL (≈ 5.46 µM) | 9.68 µg/mL (≈ 15.8 µM) | 
9 | CC(C)C[C@@H]1NC(=O)[C@H](Cc2ccccc2)NC(=O)[C@@H](CC(C)C)N(C)C(=O)[C@H](CC(C)C)NC(=O)[C@H](CC(C)C)NC1=O [cyclo(Phe-Leu-Leu-Leu-D-N-Me-Leu)] |  |  |  |  | ring closure, yield after HPLC ([1]; from H-Phe-Leu-Leu-Leu-dMeLeu-OH?): 66.4%
10 | CC(C)C[C@H]1NC(=O)[C@@H](CC(C)C)NC(=O)[C@H](CC(C)C)N(C)C(=O)[C@@H](CC(C)C)NC(=O)[C@H](Cc2ccccc2)NC1=O [cyclo(Phe-D-Leu-N-Me-Leu-D-Leu-D-Leu)] |  |  |  |  | ring closure, yield after HPLC ([1]; from H-Phe-dLeu-MeLeu-dLeu-dLeu-OH?): 57.3%
11 | CC(C)C[C@@H]1NC(=O)[C@@H](Cc2ccccc2)NC(=O)[C@@H](CC(C)C)NC(=O)[C@@H](CC(C)C)NC(=O)[C@H](CC(C)C)N(C)C1=O [Compound 2, cyclo(D-Phe-Leu-N-Me-Leu-D-Leu-D-Leu)] | 5.27 µg/mL (≈ 8.59 µM) | 15.01 µg/mL (≈ 24.5 µM) | 5.48 µg/mL (≈ 8.93 µM) | 7.76 µg/mL (≈ 12.6 µM) | 
12 | CC(C)C[C@@H]1NC(=O)[C@@H](Cc2ccccc2)NC(=O)[C@@H](CC(C)C)N(C)C(=O)[C@@H](CC(C)C)NC(=O)[C@@H](CC(C)C)NC1=O [cyclo(D-Phe-Leu-D-Leu-D-Leu-D-N-Me-Leu)] |  |  |  |  | ring closure, yield after HPLC ([1]; from H-dPhe-Leu-dLeu-dLeu-dMeLeu-OH?): 50%
13 | CC(C)C[C@@H]1NC(=O)[C@H](Cc2ccccc2)NC(=O)[C@@H](CC(C)C)NC(=O)[C@@H](CC(C)C)NC(=O)[C@@H](CC(C)C)N(C)C1=O [cyclo(Phe-Leu-D-N-Me-Leu-D-Leu-D-Leu)] |  |  |  |  | ring closure, yield after HPLC ([1]; from H-Phe-Leu-dMeLeu-dLeu-dLeu-OH?): 51.7%
14 | CC(C)C[C@@H]1NC(=O)[C@H](CC(C)C)NC(=O)[C@@H](Cc2ccccc2)NC(=O)[C@H](CC(C)C)N(C)C(=O)[C@@H](CC(C)C)NC1=O [cyclo(D-Phe-Leu-Leu-D-Leu-N-Me-Leu)] |  |  |  |  | ring closure, yield after HPLC ([1]; from H-dPhe-Leu-Leu-dLeu-MeLeu-OH?): 65.4%
15 | CC(C)C[C@@H]1NC(=O)[C@@H](CC(C)C)N(C)C(=O)[C@H](CC(C)C)NC(=O)[C@@H](Cc2ccccc2)NC(=O)[C@@H](CC(C)C)NC1=O [Compound 4, cyclo(D-Phe-Leu-D-N-Me-Leu-Leu-D-Leu)] | 8.89 µg/mL (≈ 14.5 µM) | 19.71 µg/mL (≈ 32.1 µM) | 1.53 µg/mL (≈ 2.49 µM) | 16.58 µg/mL (≈ 27 µM) | 
16 | CC(C)C[C@H]1NC(=O)[C@H](Cc2ccccc2)NC(=O)[C@H](CC(C)C)N(C)C(=O)[C@@H](CC(C)C)NC(=O)[C@@H](CC(C)C)NC1=O [cyclo(Phe-D-Leu-D-Leu-D-Leu-N-Me-Leu)] |  |  |  |  | ring closure, yield after HPLC ([1]; from H-Phe-dLeu-dLeu-dLeu-MeLeu-OH?): 55.1%
17 | CC(C)C[C@@H]1NC(=O)[C@H](Cc2ccccc2)NC(=O)[C@H](CC(C)C)N(C)C(=O)[C@@H](CC(C)C)NC(=O)[C@H](CC(C)C)NC1=O [cyclo(Phe-Leu-Leu-D-Leu-N-Me-Leu)] |  |  |  |  | ring closure, yield after HPLC ([1]; from H-Phe-Leu-Leu-dLeu-MeLeu-OH?): 46.1%
18 | CC(C)C[C@H]1NC(=O)[C@@H](CC(C)C)NC(=O)[C@H](CC(C)C)N(C)C(=O)[C@@H](CC(C)C)NC(=O)[C@H](Cc2ccccc2)NC1=O [Compound 1, cyclo(Phe-D-Leu-N-Me-Leu-D-Leu-D-Leu)] | 8.74 µg/mL (≈ 14.2 µM) | 27.2 µg/mL (≈ 44.3 µM) | 1.25 µg/mL (≈ 2.04 µM) | 12.15 µg/mL (≈ 19.8 µM) | anti-tumor activity towards SMMC-7721, fold higher than galaxamide [4, 6]: 9 fold; anti-tumor activity towards SMMC-7721, fold higher than reference DPP (cisplatin) [4, 6]: 10 fold
19 | CC(C)C[C@@H]1NC(=O)[C@@H](Cc2ccccc2)NC(=O)[C@@H](CC(C)C)N(C)C(=O)[C@@H](CC(C)C)NC(=O)[C@@H](CC(C)C)NC1=O [Compound 25, cyclo(D-Phe-Leu-D-Leu-D-Leu-D-N-Me-Leu)] | 5.18 µg/mL (≈ 8.44 µM) | 20.43 µg/mL (≈ 33.3 µM) | 6.85 µg/mL (≈ 11.2 µM) | 22.88 µg/mL (≈ 37.3 µM) | 
20 | CC(C)C[C@@H]1NC(=O)[C@H](Cc2ccccc2)NC(=O)[C@@H](CC(C)C)NC(=O)[C@@H](CC(C)C)NC(=O)[C@@H](CC(C)C)N(C)C1=O [Compound 3, cyclo(Phe-Leu-D-N-Me-Leu-D-Leu-D-Leu)] | 5.17 µg/mL (≈ 8.42 µM) | 11.41 µg/mL (≈ 18.6 µM) | 2.77 µg/mL (≈ 4.51 µM) | 18.82 µg/mL (≈ 30.7 µM) | 
21 | CC(C)C[C@@H]1NC(=O)[C@H](CC(C)C)N(C)C(=O)[C@@H](Cc2ccccc2)NC(=O)[C@@H](CC(C)C)N(C)C(=O)[C@H](CC(C)C)NC1=O [Compound 26, cyclo(D-Phe-N-Me-Leu-Leu-Leu-D-N-Me-Leu)] | 4.27 µg/mL (≈ 6.8 µM) | 11.33 µg/mL (≈ 18 µM) | 6.65 µg/mL (≈ 10.6 µM) | 7.12 µg/mL (≈ 11.3 µM) | 
22 | CC(C)C[C@@H]1NC(=O)[C@H](CC(C)C)N(C)C(=O)[C@H](CC(C)C)NC(=O)[C@@H](CC(C)C)N(C)C(=O)[C@@H](Cc2ccccc2)NC1=O [cyclo(D-Phe-D-N-Me-Leu-Leu-N-Me-Leu-Leu)] |  |  |  |  | ring closure, yield after HPLC ([1]; from H-dPhe-dMeLeu-Leu-MeLeu-Leu-OH?): 45.5%
23 | CC(C)C[C@@H]1NC(=O)[C@@H](Cc2ccccc2)NC(=O)[C@H](CC(C)C)N(C)C(=O)[C@H](CC(C)C)NC(=O)[C@@H](CC(C)C)NC1=O [cyclo(D-Phe-Leu-D-Leu-Leu-N-Me-Leu)] |  |  |  |  | ring closure, yield after HPLC ([1]; from H-dPhe-Leu-dLeu-Leu-MeLeu-OH?): 48.5%
